Data published in PMC5587642, “A Novel Benzocoumarin-Stilbene Hybrid as a DNA ligase I inhibitor with in vitro and in vivo anti-tumor activity in breast cancer models” (Scientific Reports, 2017).
Entries after “also recorded” stand apart in the source; their conditions may differ.

What was measured:
[1] = tested on: MCF-10A (Normal breast epithelial cells); experiment: MTT cell viability assay; format: cell-based, human
Procedure: (§1) Cell viability assay was performed as described previously. Briefly, cells were seeded in 96 well plates and treated with different concentrations of compound 19 for 48 h. After drug treatment, MTT reagent was added in each well of the plate and cell viability was quantified by measuring the absorbance at 590 nm.

[2] = tested on: MDA-MB-231 cells; experiment: MTT cell viability assay; format: cell-based, human; settings: for IC50: MTT, 48 h
Procedure: as §1

[3] = tested on: MDA-MB-231 cells; experiment: Scratch (migration) assay; format: cell-based, human; settings: 3 and 6 µM; 12 and 24 h
Procedure: The migration capacity of highly metastatic human breast cancer MDA-MB-231 cells was assessed by in-vitro scratch assay as described previously[36] with some modifications. Briefly, cells were plated in 12 well plates and a scratch was created by scraping the cells with a sterile 10 μL pipet tip in the middle of the culture well. After removal of cellular debris, the cells were treated with different concentrations of the test compound. Images of the wound area were captured at 0, 12 and 24 h post-treatment. Wound area was measured by TScratch software and data were expressed as percent (%) open area of control and treated cells.

[4] = tested on: MDA-MB-231 cells; experiment: Western blotting of DNA damage and apoptosis markers; format: cell-based, human; settings: 6 and 12 µM, 48 h
Procedure: Cells (MDA-MB-231) were seeded in 6 well plates and treated either with vehicle control (DMSO) or with different concentrations (6 and 12 µM) of compound 19 for 48 h. After the treatment cell lysate was prepared and western blotting was performed as described previously. Briefly, the cells were lysed by very brief sonication. Sonicated samples were centrifuged and the supernatant was collected and used for ligation assay and western blotting.

[5] = tested on: 4T1 mouse breast cancer induced syngeneic breast tumor; experiment: Syngeneic 4T1 orthotopic breast cancer model; format: in vivo, BALB/c mice; settings: 50 and 100 mg/kg, oral gavage daily for 32 days
Procedure: Animal studies were conducted under the protocol approved by the CSIR-CDRI Institutional Animal Ethics Committee (IAEC approval no. IAEC/2015/03). The in-vivo efficacy studies were performed using BALB/c mice with 4T1 mouse breast cancer induced syngeneic breast tumor model. Mouse tumor model was generated as described by Pulaski et al.[38]. Three different groups of 6 mice each were created for the experiment. Mouse breast cancer cells (4T1) were grown in tissue culture flask upto 70% confluence. Cells were then trypsinized, washed with serum containing medium to quench trypsin activity and then washed and resuspended in PBS. Then cells were injected orthotopically (1 × 10^6 cells in 100 μl PBS) into the mammary fat pad on the right flank of each female BALB/c mouse. Within 2 weeks, palpable tumors were formed and tumor bearing mice were divided randomly into one control and two treatment groups of six mice each. The treatment schedule began on day 16 of the injection and continued for another thirty two days. Compounds were administered by oral gavage once daily at 50 and 100 mg/kg. Tumor volumes were measured every fourth day. The group of vehicle treated animals served as control. The tumor volume, body weight and any behavioral changes in mice were monitored and recorded for the entire duration of the experiment (32 days). Tumor volumes were calculated using the formula (a × b^2)/2, where a, b are two longest perpendicular diameters.

[6] = target: T1, FEN1 protein (Homo sapiens, UniProt P39748); experiment: Flap cleavage assay; format: biochemical; settings: compound 19 at 5, 10, 20 µM
T1 construct: His-tag (C); made in house; host or cells: E. coli BL21DE3
Procedure: Purification of FEN 1: Full length FEN1 DNA template was taken from pShuttle-FEN1hWT, a gift from Sheila Stewart (Addgene plasmid#35027) is subcloned into a pET41a expression vector containing C-terminal His-tag. pET41FEN1His freshly transformed into expression host BL21DE3 E. coli cells (Novagene), single colonies picked and inoculated in 5ml of LB media containing 50μg/ml of Kanamycin, grown for 3 to 4 hrs and further subcultured in 100 ml of LB medium containing 50μg/ml of Kanamycin and grown at 37°C till the OD reached to 0.6-0.7, induced at 0.5 mM IPTG at 16°C for 18hrs. Pellets were collected and lysed in 20 mM tris 150 mM NaCl (Lysis buffer) containing 1mM PMSF and 1mM benzamidine hydrochloride and purified by Ni-NTA affinity chromatography.
Flap cleavage assay: All oligos were purchased from Integrated DNA Technologies and dissolved in nuclase free water at concentration of 100μM. FAM-labeled 25+6 Flap-mer (5’-[…]-3’*6FAM)) was annealed with 52- mer (5’-[…]-3’) and 27-mer (5’-[…]-3’) to form a complementary double strand flap cleavage substrate. […] The cleaved and uncleaved DNA molecules are separated on 15% Urea gel and bands were detected by Image Quant LAS 4010 (GE Healthcare).

[7] = target: T2, hLigI (Homo sapiens, UniProt P18858); experiment: In-vitro fluorescence quenching assay; format: binding; settings: 5 and 10 µM, excitation 280 nm
T2 construct: made in house
Procedure: In-vitro fluorescence quenching assay was performed as described previously[16] with brief modifications. At the fixed excitation wavelength 280 nm emission spectra of hLigI (100 pmol) was recorded from 300 to 400 nm in the presence (5 and 10 µM) or absence of compound 19 by spectrofluorometer. Compound 19 was used at 5 and 10 µM concentration with hLigI (100 pmol). Spectra was acquired for buffer alone (50 mM Tris-HCl, pH 7.5, 50 mM NaCl, 1 mM ATP, 10 mM MgCl2, 2 mM DTT and 5% glycerol), buffer with vehicle control, buffer with inhibitor alone and for buffer with protein and inhibitor.

[8] = target: T2, hLigI; experiment: Circular dichroism study; format: binding; settings: 5 and 10 µM
Procedure: We followed previously described protocol for CD studies[40] with small modifications. Briefly, emission spectra of hLigI (100 pmol) was recorded at a wavelength of 190-250 nm in the presence (5 and 10 µM) or absence of compound 19 by spectropolarimeter. The raw values in mdeg were obtained and used for mean residual ellipticity [θ] calculation. The graph was generated by the plotting the value of mean residue ellipticity in deg cm^2 dmol^−1 with respect to wavelength.

T2 sequence (P18858 whole entry): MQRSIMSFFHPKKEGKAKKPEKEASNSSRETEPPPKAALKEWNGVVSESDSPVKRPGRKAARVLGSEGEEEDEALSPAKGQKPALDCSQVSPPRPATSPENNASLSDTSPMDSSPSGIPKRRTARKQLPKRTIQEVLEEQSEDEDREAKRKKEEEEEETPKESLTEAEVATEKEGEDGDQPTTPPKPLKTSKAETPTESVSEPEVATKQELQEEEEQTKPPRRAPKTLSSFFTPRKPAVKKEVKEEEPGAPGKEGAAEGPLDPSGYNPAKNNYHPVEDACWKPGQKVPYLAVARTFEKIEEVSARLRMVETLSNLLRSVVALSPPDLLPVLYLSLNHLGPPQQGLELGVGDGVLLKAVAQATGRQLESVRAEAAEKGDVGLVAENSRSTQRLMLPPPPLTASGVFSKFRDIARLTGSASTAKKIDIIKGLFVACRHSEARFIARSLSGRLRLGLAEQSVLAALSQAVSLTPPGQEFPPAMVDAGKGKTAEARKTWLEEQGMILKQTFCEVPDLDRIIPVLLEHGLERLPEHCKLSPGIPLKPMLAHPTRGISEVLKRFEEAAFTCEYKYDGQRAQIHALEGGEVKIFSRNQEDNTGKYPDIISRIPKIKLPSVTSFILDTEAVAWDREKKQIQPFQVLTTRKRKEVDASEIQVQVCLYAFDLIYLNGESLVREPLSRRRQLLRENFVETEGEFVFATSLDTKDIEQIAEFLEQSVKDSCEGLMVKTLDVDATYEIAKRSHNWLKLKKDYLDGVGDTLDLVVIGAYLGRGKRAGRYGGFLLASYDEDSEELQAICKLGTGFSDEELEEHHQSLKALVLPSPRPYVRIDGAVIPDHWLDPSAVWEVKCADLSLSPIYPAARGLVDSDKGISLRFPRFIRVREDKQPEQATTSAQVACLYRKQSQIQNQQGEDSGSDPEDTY
T1 sequence (P39748 whole entry): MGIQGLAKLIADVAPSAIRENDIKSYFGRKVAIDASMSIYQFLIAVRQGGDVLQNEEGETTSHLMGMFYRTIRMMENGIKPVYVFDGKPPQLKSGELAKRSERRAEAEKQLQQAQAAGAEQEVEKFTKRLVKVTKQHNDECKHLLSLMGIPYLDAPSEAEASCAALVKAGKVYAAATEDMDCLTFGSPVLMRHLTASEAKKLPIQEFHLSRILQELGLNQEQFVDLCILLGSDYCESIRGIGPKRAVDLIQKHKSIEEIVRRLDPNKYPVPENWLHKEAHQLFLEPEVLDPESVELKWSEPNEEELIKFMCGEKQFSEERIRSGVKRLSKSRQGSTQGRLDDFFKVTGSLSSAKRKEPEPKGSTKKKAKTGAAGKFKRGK

COc1cc(/C=C/c2cc(=O)oc3c2ccc2ccccc23)cc(OC)c1 [Compound 19, (E)-4-(3,5-dimethoxystyryl)-2H-benzo[h]chromen-2-one]
% Inhibition of cell viability at 10 µM, MCF-10A (Normal breast epithelial cells) [1]: 50.83%
% Inhibition of cell viability at 10 µM, MDA-MB-231 (Breast) ([2]; 10 µM): 51.35%
inhibition at 10 µM ([2]; Homo sapiens, MDA-MB-231, 48 h, 10 μM, % inhibition, read-out: Antiproliferative activity at 10μM in MDA-MB-231): > 50%
IC50 ([2]; Homo sapiens, MDA-MB-231, 48 h): 12.5 ± 2.8 µM
Comparative cell viability versus parent compounds ([2]; MDA-MB-231, versus Neo-tanshinlactone and resveratrol): more active as compared to parent compounds
IC50 [2]: 12 µM
Cell migration (percent open area) [3]: significantly inhibit the cell migration
Apoptotic signaling (p53, MDM2, PCNA, caspase 9, caspase 3, PARP-1) [4]: promotes p53 mediated intrinsic pathway of apoptosis
DNA damage marker γH2AX expression [4]: increased expression of γH2AX
Average body weight [5]: no significant change in the average body weight
Breast cancer metastasis to the lungs (4T1 nodules) [5]: marked decrease in breast cancer metastasis to the lungs
Breast tumor growth in-vivo [5]: inhibited breast tumor growth in-vivo in a dose dependent manner; also recorded: arrested tumor progression but could not induce tumor regression
Inhibition of FEN1 flap cleavage activity [6]: not able to inhibit
Change of hLigI fluorescence spectra (protein binding) [7]: fluorescence spectra of the full length hLigI protein changed
Conformational change of hLigI (CD) [8]: promoted conformational changes in protein
